Laboratory results from patent publication US7125853B2, “Bicyclic carbohydrate compounds useful in the treatment of infections caused by Flaviviridae sp., such as hepatitis C and bovine viral diarrhea viruses” (Kemin Pharma B.V.B.A., priority 2003, dated 2006).
≈ marks a conversion by molar mass, not a printed value.

Key:
CMV Davis, AD-169 = assay: CMV-induced plaque formation in HEL cells; assay type: cell-based, human cytomegalo virus; details: human embryonic lung HEL cells, day 7
[1] = system: T. mentagrophytes ATCC 9533; assay: antifungal microdilution screening; assay type: cell-based, Trichophyton mentagrophytes; details: 5 days at 30° C., RPMI 1640
Method: (§1) Based on the NCCLS documents M7-A4, Vol. 17 No. 2, M27-A, Vol 17 No. 9 and M38-P, Vol 18 No. 13, a microdilution method for conducting the antibacterial and antifungal screenings was developed using a Bioscreen C Analyser (Labsystems, Finland), which is an automated reader-incubator. It measures growth continuously by vertical photometry (optical density), processes the data and provides a print-out of the results. For the bacteria we selected as primary target: Staphylococcus aureus ATCC29213, Enterococcus faecalisATCC 29212, Escherichia coli ATCC 25922 and Pseudomonas aeruginosa ATCC 27853. Candida albicans ATCC 24433 and Cryptococcus neoformans ATCC 90112 were selected as yeast targets. The dermatophyte Trichophyton mentagrophytes ATCC 9533 and the invasive mould Aspergillus fumigatus ATCC 2895 were selected as moulds. All parameters necessary for optimal incubation can be programmed in the Biolink-software (Labsystems, Finland). Incubation for all bacterial screenings was 16 hours at 35° C. The incubation parameters for the screenings against Candida and Cryptococcus were respectively 24 and 48 hours at 35° C., the invasive fungus Aspergillus fumigatus was incubated for 3 days at 30° C. and the dermatophyte T. mentagrophytes was incubated for 5 days at 30° C. As growth media for the bacteria cation adjusted Mueller-Hinton broth (Oxoid, Belgium) was used. A synthetic medium is recommended for fungal susceptibility tests: RPMI 1640, with glutamine, and without bicarbonate and with a pH indicator (Oxoid), supplemented with 1% glucose.25 μl of a 10-fold compound concentration is pipetted into each well. To each 25 μl test compound 225 μl of growth media was added. As measurement tool for the antibacterial and anti-yeast screenings, the area under the growth curve is used, which is automatically determined via the Biolink software. For the screenings against the pathogenic moulds we used endpoint OD-measurement. For internal quality control, reference antibiotics for each micro-organism are incorporated in the set-up of the tests.

BVDV strain Pe515 = assay: anti-BVDV activity in MDBK cells (MTS method); assay type: cell-based, bovine viral diarrhea virus; details: for anti-viral activity against BVDV (in words): second set of screenings
Method: (§2) The compounds were also screened against flaviviruses. Due to the fact that there is no adequate in vitro assay to screen against HCV, we opted to screen against the bovine viral diarrhea virus (BVDV), as it shares many similarities with the hepatitis C virus. Antiviral activity was assessed using the Pe 515 strain of BVDV on Madin Darby bovine kidney cells (MDBK cells). Both antiviral activity and cytotoxicity was determined by means of the MTS method. The EC50 is the concentration required to reduce virus induced cytopathic effect by 50%. The MTC (minimal toxic concentration) was defined as the concentration that caused >=20% reduction in cell metabolism.

S. aureus ATCC 29213 = assay: antibacterial microdilution screening; assay type: cell-based, Staphylococcus aureus; details: 16 hours at 35° C., Mueller-Hinton broth
Method: as §1

A. fumigatus ATCC 2895 = assay: antifungal microdilution screening; assay type: cell-based, Aspergillus fumigatus; details: 3 days at 30° C., RPMI 1640
Method: as §1

HIV-2 (ROD) = assay type: cell-based, human immunodeficiency virus; details: HIV-induced cytopathicity, human lymphocyte CEM cell cultures
HIV-1 (IIIB) = assay: HIV-1-induced cytopathicity in CEM cell cultures; assay type: cell-based, human immunodeficiency virus; details: human lymphocyte CEM cell cultures
HSV-1 (KOS) = assay type: cell-based, herpes simplex virus; details: HSV-induced cytopathicity, human embryo fibroblast E6SM cell cultures
C. albicans ATCC 24433 = assay: antifungal microdilution screening; assay type: cell-based, Candida albicans; details: 24 hours at 35° C., RPMI 1640
Method: as §1

Molt4/C8 = details: human T-lymphocyte cells, proliferation
Text: (§3) The compounds were also checked for anti-tumor activity via the proliferation of murine leukemia cells (L 1210/0), murine mammary carcinoma cells (FM3A) and human T-lymphocyte cells (Molt4/C8, CEM/0).

FM3A/0 = details: murine mammary carcinoma cells, proliferation
Text: as §3

CEM/0 = details: human T-lymphocyte cells, proliferation
Text: as §3

L1210/0 = details: murine leukemia cells, proliferation
Text: as §3

P. aeruginosa ATCC 27853 = assay: antibacterial microdilution screening; assay type: cell-based, Pseudomonas aeruginosa; details: 16 hours at 35° C., Mueller-Hinton broth
Method: as §1

E. faecalis ATCC 29212 = assay: antibacterial microdilution screening; assay type: cell-based, Enterococcus faecalis; details: 16 hours at 35° C., Mueller-Hinton broth
Method: as §1

VV = assay type: cell-based, vaccinia virus; details: VV-induced cytopathicity, human embryo fibroblast E6SM cell cultures
MDBK cells = assay: cytotoxicity in MDBK cells (MTS method); assay type: cell-based, bovine; details: minimal toxic concentration causing >=20% reduction in cell metabolism; highest concentration 100 μg/ml
Method: as §2

[2] = system: L1210/0, FM3A/0, Molt4/C8 and CEM/0; assay: anti-tumor screening, verdict over all tested cell-lines; assay type: cell-based
HSV-2 (G) = assay type: cell-based, herpes simplex virus; details: HSV-induced cytopathicity, human embryo fibroblast E6SM cell cultures
C. neoformans ATCC 90112 = assay: antifungal microdilution screening; assay type: cell-based, Cryptococcus neoformans; details: 48 hours at 35° C., RPMI 1640
Method: as §1

E. coli ATCC 25922 = assay: antibacterial microdilution screening; assay type: cell-based, Escherichia coli; details: 16 hours at 35° C., Mueller-Hinton broth
Method: as §1

VZV OKA = assay type: cell-based, varicella zoster virus

SMILES | EC50 CMV Davis, AD-169 (HEL) (CMV Davis, AD-169) [µg/mL] | MIC T. mentagrophytes ATCC 9533 [1] [µg/mL] | anti-viral activity against BVDV (in words) (BVDV strain Pe515) | MIC S. aureus ATCC 29213 (S. aureus ATCC 29213) [µg/mL] | MIC A. fumigatus ATCC 2895 (A. fumigatus ATCC 2895) [µg/mL] | EC50 HIV-2 (ROD) (CEM) (HIV-2 (ROD)) [µg/mL] | EC50 HIV-1 (IIIB) (CEM) (HIV-1 (IIIB)) [µg/mL] | EC50 HSV-1 (KOS) (E6SM) (HSV-1 (KOS)) [µg/mL] | MIC C. albicans ATCC 24433 (C. albicans ATCC 24433) [µg/mL] | IC50 Molt4/C8 (Molt4/C8) [µg/mL] | IC50 FM3A/0 (FM3A/0) [µg/mL] | IC50 CEM/0 (CEM/0) [µg/mL] | IC50 L1210/0 (L1210/0) [µg/mL] | MIC P. aeruginosa ATCC 27853 (P. aeruginosa ATCC 27853) [µg/mL] | MIC E. faecalis ATCC 29212 (E. faecalis ATCC 29212) [µg/mL] | EC50 VV (E6SM) (VV) [µg/mL] | MTC (μg/ml) MDBK (MDBK cells) | EC50 HSV-2 (G) (E6SM) (HSV-2 (G)) [µg/mL] | MIC C. neoformans ATCC 90112 (C. neoformans ATCC 90112) [µg/mL] | MIC E. coli ATCC 25922 (E. coli ATCC 25922) [µg/mL] | also measured
CCCOC1C(Cc2ccccc2)OC2COC(c3ccccc3)OC2C1OCCC (stereo not shown) [Compound A1] | >20 | >25 | significant anti-viral activity | >25 | >25 | >4 | >20 | >16 | >25 | >200 | >200 | >200 | >200 | >25 | >25 | >16 | >100/>100/>100 μg/ml | >16 | >25 | >25 | anti-tumor activity against all tested cell-lines (in words) [2]: No anti-tumor activity
CCCCOC1C(Cc2ccccc2)OC2COC(c3ccccc3)OC2C1OCCCC (stereo not shown) [Compound A2] | >20 | >25 | moderate activity | >25 | >25 | >20 | >20 | >16 | >25 | 19 ± 1 (≈ 41.8 µM) | 22 ± 0 (≈ 48.4 µM) | 27 ± 2 (≈ 59.4 µM) | 82 ± 7 (≈ 180 µM) | >25 | >25 | >16 | >100/>100/>100 μg/ml | >16 | >25 | >25 | anti-tumor activity against all tested cell-lines (in words) [2]: moderate anti-tumor activity
CC(C)OC1C(c2ccccc2)OC2COC(c3ccccc3)OC2C1OC(C)C (stereo not shown) [Compound A3] | >5 | >25 | significant anti-viral activity | >25 | >25 | >4 | >20 | >8 | >25 | – | – | – | – | >25 | >25 | – | >100 µg/mL | >8 | >25 | >25 | EC50 (μg/ml) BVDV (BVDV strain Pe515; strain Pe515, MDBK cells, MTS method, values separated by / are independent experiments): < 0.8 µg/mL; EC50 VZV (HEL) OKA (VZV OKA; VZV-induced plaque formation, human embryonic lung HEL cell cultures, OKA strain): 1.1 µg/mL (≈ 2.67 µM); activity against VZV (in words) (VZV OKA; first set of screenings): showed activity against VZV
NC(=O)c1ncn([C@@H]2O[C@H](CO)[C@@H](O)[C@H]2O)n1 [Ribavirin, reference compound] | – | – | – | – | – | – | – | – | – | – | – | – | – | – | – | – | – | – | – | – | EC50 (BVDV strain Pe515; Bovine viral diarrhea virus isolates and strains, strain Pe515, MDBK cells, MTS method, values separated by / are independent experiments, read-out: EC50 (μg/ml) BVDV): 40 µg/mL (≈ 164 µM)
